Patent US20030175350A1, “Enteric preparations containing physiologically active peptides” (priority 2000, published 2003)

What was measured:
[1] = Absorbability of compound (1) in cynomolgus monkey by oral administration of tablets; format: in vivo
From the text: Blood was periodically collected, plasma was isolated, and then plasma concentration of unchanged was quantified with HPLC.

[2] = rat, in vivo, po; cited from earlier work

Oral absorbability compared to rat and mouse [1]	Tmax compared to rat and mouse [1]	Structure (SMILES)	bioavailability [2]
decreased absorbability	markedly delayed Tmax	C[C@@H]1OC(=O)NC1C(=O)N[C@@H](Cc1cscn1)C(=O)N1CCC[C@H]1C (stereo partly drawn) [compound (1)]	
		CN1C(=O)C[C@@H](C(=O)N[C@@H](Cc2c[nH]cn2)C(=O)N2CCC[C@H]2C(N)=O)NC1=O [taltirelin]	3.9%
